{"source": "paper PMC7367283", "about": "“A PIP2 substitute mediates voltage sensor-pore coupling in KCNQ activation” (Communications Biology, 2020)", "molecular_target": "T1, HCN4 (Homo sapiens, UniProt Q9Y3Q4)", "T1 sequence (Q9Y3Q4 1-1203)": "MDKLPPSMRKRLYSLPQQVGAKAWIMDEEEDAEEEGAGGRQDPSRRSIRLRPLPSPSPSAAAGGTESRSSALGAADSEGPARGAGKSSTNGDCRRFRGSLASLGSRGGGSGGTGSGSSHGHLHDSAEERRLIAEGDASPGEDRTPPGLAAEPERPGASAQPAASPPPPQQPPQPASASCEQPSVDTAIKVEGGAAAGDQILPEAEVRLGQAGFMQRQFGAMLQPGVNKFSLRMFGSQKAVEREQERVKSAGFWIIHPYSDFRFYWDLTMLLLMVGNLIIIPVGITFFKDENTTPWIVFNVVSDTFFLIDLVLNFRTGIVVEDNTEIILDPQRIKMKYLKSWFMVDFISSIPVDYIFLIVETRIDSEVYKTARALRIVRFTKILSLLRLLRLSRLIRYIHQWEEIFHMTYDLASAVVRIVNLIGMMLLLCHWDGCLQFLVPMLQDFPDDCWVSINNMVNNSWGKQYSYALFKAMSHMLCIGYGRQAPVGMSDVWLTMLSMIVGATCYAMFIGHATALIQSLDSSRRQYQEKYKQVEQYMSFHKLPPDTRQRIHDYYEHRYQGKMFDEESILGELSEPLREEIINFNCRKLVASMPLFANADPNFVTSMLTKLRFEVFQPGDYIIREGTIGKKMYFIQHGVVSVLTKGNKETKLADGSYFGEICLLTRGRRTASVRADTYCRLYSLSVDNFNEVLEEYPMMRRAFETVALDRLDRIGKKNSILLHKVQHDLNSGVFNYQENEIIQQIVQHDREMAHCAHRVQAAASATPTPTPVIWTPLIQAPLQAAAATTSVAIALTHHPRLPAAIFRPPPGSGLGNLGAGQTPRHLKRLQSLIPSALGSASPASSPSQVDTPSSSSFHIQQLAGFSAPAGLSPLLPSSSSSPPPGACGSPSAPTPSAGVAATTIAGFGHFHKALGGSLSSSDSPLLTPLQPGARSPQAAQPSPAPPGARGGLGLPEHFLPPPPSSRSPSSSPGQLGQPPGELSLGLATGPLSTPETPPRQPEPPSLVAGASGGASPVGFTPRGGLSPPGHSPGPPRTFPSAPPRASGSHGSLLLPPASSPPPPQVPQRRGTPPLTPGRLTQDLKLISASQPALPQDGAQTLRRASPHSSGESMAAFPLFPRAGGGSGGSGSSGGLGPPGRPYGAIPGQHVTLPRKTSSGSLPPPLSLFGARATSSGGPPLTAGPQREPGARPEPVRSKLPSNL", "assay": "Two-electrode voltage clamp of HCN4 in Xenopus oocytes", "format": "cell-based", "settings": "10 µM CP1", "excerpt": "Since CP1 has a similar effect to PIP2 in mediating VSD-pore coupling in KCNQ channels, we tested if CP1 has effects on other ion channels that are also sensitive to PIP2 or are voltage activated and share general structural features of the VSD and the pore with KCNQ. […] On the other hand, NaV1.5 and KV4.2 are voltage-gated ion channels.\nFig. 6 Effects of CP1 on other ion channels expressed in Xenopus oocytes. a Currents of Kir1.1, CaV1.2, NaV1.5, hERG, and KV4.2 before and after application of 10 µM CP1, respectively. The voltages for holding, test, and returning pulses were Kir1.1, 0 mV, −100 to +60 mV, 0; CaV1.2, −100 mV, −100 to +60, −100 mV; NaV1.5, −100, −120 to +40 mV, −120 mV; hERG, −80 mV, −90 to +60 mV, −60 mV; KV4.2, −80 mV, −100 mV to +80 mV, −40 mV; HCN4, −30 mV, −30 to −140 mV, −120 mV. b Current–voltage relations of Kir1.1 channel in the absence or presence of 10 µM CP1 (n = 7). c–g G–V relations of indicated channels with and without 10 µM CP1. The ΔV1/2 of G–V relations (mV) are CaV1.2, 3.38 ± 0.71 mV (c); NaV1.5, −2.26 ± 0.95 mV (d); hERG, 6.85 ± 1.81 mV (e); KV 4.2, −2.26 ± 2.88 mV (f); HCN4, 17.13 ± 1.59 mV (g).\nComplementary DNA (cDNA) encoding human KCNQ1 (UniProtKB/Swiss‐Prot under accession no. P51787), KCNQ2 (O43526), KCNQ3 (O43525), KCNE1 (P15382), Kir1.1 (P48048), hERG (Q12809), KV4.2 (Q63881), NaV1.5 (Q14524), NaV β1 (Q07699), CaV1.2 (Q13936), CaV β1a (Q02641), CaV α2/δ1 (P54289), and HCN4 (Q9Y3Q4) were subcloned into oocyte expression vectors, respectively. Site-directed mutations of the KCNQ1 channel were all produced by overlap extension polymerase chain reaction (PCR) with high-fidelity Pfu polymerase (Stratagene, CA). The presence of the desired mutation was verified by sequencing the PCR-amplified regions. All the primer sequences used in this study are available in Supplementary Table 1. The complementary RNA (cRNA) of all these channels and mutations was transcribed in vitro with the T3, T7, or SP6 polymerase mMessage mMachine kit (Invitrogen, Thermo Fisher Scientific, MO).\nThe whole-oocyte ionic currents were recorded with a GeneClamp 500B amplifier (Axon Instruments, CA) or iTEV90 amplifier (HEKA, Germany) and then sampled at 1 kHz and low-pass-filtered at 2 kHz. The Patchmaster software (HEKA, Germany) was used to acquire data. The Kir1.1 current was recorded with a high K^+ bath solution containing (in mM) 96 KCl, 4 NaCl, 1 CaCl2, 2 MgCl2, and 10 HEPES, pH 7.3–7.4. The HCN4 current was recorded in ND66 solution containing (in mM) 66 NaCl, 32 KCl, 1.8 CaCl2, 1 MgCl2, and 5 HEPES, pH 7.6. All the other potassium channels were recorded in ND96 solution. The currents of CaV1.2 channel were recorded in 40 mM Ba^2+ bath solution containing (in mM) 40 Ba(OH)2, 50 TEA-OH, 2 KOH, and 5 HEPES, adjusted to pH 7.4 with methanesulfonic acid. CP1 (DISODIUM 5-BROMO-2-[9-CHLORO-3-(SULFONATOOXY) NAPHTHO [1,2-B] THIEN-2-YL]-1H-INDOL-3-YL SULFATE, Sigma-Aldrich, MO) and Chromanol 293B (Sigma-Aldrich, MO) were dissolved in bath solutions. All the chemicals were purchased from Sigma-Aldrich. To measure the I–V relations of the Kir1.1 channel, the test voltage was set from −100 to +60 mV for 1 s with 20-mV increments. The test pulses were stepped from a holding potential of 0 mV and then stepped back to 0 mV. The HCN4 currents were recorded by a test pulse between −30 and −140 mV in 10-mV step from a holding potential of −30 mV. For all the other potassium channels and CaV1.2 channel, the holding potential was −80 or −100 mV, and the test pulse was applied with 10-mV increment, which was followed with a repolarization pulse at −40 mV before returning to the holding potential. The durations of test and the repolarization pulse vary for different channels to allow the activation and deactivation of the channel to reach their steady states."}
{"smiles": "O=S(=O)([O-])Oc1c(-c2sc3c(ccc4cccc(Cl)c43)c2OS(=O)(=O)[O-])[nH]c2ccc(Br)cc12.[Na+].[Na+]", "note": "[CP1, DISODIUM 5-BROMO-2-[9-CHLORO-3-(SULFONATOOXY) NAPHTHO [1,2-B] THIEN-2-YL]-1H-INDOL-3-YL SULFATE]", "values": [{"measurement": "ΔV1/2 of G–V relations", "value": "17.13 ± 1.59", "unit": "mV"}, {"measurement": "G/Gmax Mean (Fig. 6g)", "setting": "voltage -30 mV", "value": 0.0988}, {"measurement": "G/Gmax Mean (Fig. 6g)", "setting": "voltage -40 mV", "value": 0.0945}, {"measurement": "G/Gmax Mean (Fig. 6g)", "setting": "voltage -50 mV", "value": 0.1008}, {"measurement": "G/Gmax Mean (Fig. 6g)", "setting": "voltage -60 mV", "value": 0.1162}, {"measurement": "G/Gmax Mean (Fig. 6g)", "setting": "voltage -70 mV", "value": 0.1464}, {"measurement": "G/Gmax Mean (Fig. 6g)", "setting": "voltage -80 mV", "value": 0.2025}, {"measurement": "G/Gmax Mean (Fig. 6g)", "setting": "voltage -90 mV", "value": 0.2959}, {"measurement": "G/Gmax Mean (Fig. 6g)", "setting": "voltage -100 mV", "value": 0.4355}, {"measurement": "G/Gmax Mean (Fig. 6g)", "setting": "voltage -110 mV", "value": 0.6065}, {"measurement": "G/Gmax Mean (Fig. 6g)", "setting": "voltage -120 mV", "value": 0.7756}, {"measurement": "G/Gmax Mean (Fig. 6g)", "setting": "voltage -130 mV", "value": 0.9097}, {"measurement": "G/Gmax Mean (Fig. 6g)", "setting": "voltage -140 mV", "value": 1.0000}]}
